System: deep retinal vascular network formation in neonatal Balb/C mice
Experiment: Neonatal mouse retinal angiogenesis model
Format: in vivo
Excerpt: Description of the Model. Immediately after birth (postnatal day zero; “P0”), retinal vasculature is virtually absent in the mouse. By four weeks after birth (P28) the retina has attained an adult pattern of retinal vessels coincident with the onset of vision. Physiological neovascularization of the retina occurs during this period via a stereotypical, biphasic developmental pattern of angiogenesis. During the primary phase of retinal vascular development, spoke-like peripapillary vessels grow radially from the central retinal artery and vein, becoming progressively interconnected by a capillary plexus that forms between them. This “inner retinal plexus” grows in area, volume and complexity, centrifugally, as a monolayer within the nerve fiber layer during the first seven to ten days following birth.
The second phase of retinal vessel formation begins between postnatal days 7 (P7) and 10 (P10) when collateral branches sprout from capillaries of the superficial plexus and penetrate into the retina where their tips branch and anastamose laterally to form a planar “deep vascular plexus”. While the deep vascular plexus is in place by P14, it undergoes extensive remodeling from P14 to P21. It is of interest to note that the formation of these vascular networks in the neonatal mouse are strikingly similar to the events occurring in the third trimester human fetus.
Advantages and Quantification of the Model. The reproducibility of the murine retinal development process and its easy accessibility in neonatal animals provide an opportunity to assess the efficacy of antiangiogenic compounds in a physiologically relevant model of angiogenesis. Additional advantages of the neonatal mouse model are the ability to qualitatively and quantitatively evaluate the angiostatic effect of putative antagonists of angiogenesis. Angiostatic activity was evaluated based upon the degree of angiogenesis in the deep, outer retinal vascular layer (secondary layer) that develops between P8 and P12. The appearance of the inner blood vessel network (primary layer) was evaluated for normal development and signs of toxicity.
Preparation of Compositions. Peptidomimetic integrin signaling inhibitor Compound (1) is solubilized in PBS at a concentration of about 20 mg/ml in PBS (1× concentration). T2-TrpRS is solubilized in PBS at a concentration of about 0.5 mg/ml (1× concentration). VEGF aptamer (pegaptanib sodium; Compound (2)) is solubilized in PBS at a concentration of about 2 mg/ml (1× concentration) to achieve an injection of approximately 1 μg/eye at 1× concentration. For all combination assays the compounds were prepared at 2 or 3 times the 1× concentration of each material and then combined to produce a final solution containing each individual compound at the same concentration as was used alone (e.g., 1×, 0.5×, 0.25× or 0.1×, as the case may be). For all assays, a single injection of 0.5 μl of PBS solutions of the drugs was administered intravitreally regardless of the number of compounds being injected. As used herein, the term “0.1×” refers to one tenth of the 1× concentration of a given material, “0.25×” refers to one quarter of the 1× concentration of a given material, “0.5×” refers to one half of the 1× concentration of a given material, and so forth for similar designations.
An in vivo angiogenesis assay in the neonatal mouse (Balb/C, The Jackson Laboratory, Bar Harbor, Me.) was used to evaluate the angiostatic activity of integrin signaling inhibitor Compound (1), T2-TrpRS, and VEGF aptamer Compound (2). Intravitreous injection and retina isolation was performed with a dissecting microscope (SMZ 645, Nikon, Japan). […] The samples (0.5 μl) were injected with a Hamilton syringe fitted with a 32-gauge needle (Hamilton Company, Reno, Nev.). The injection was made between the equator and the corneal limbus. During injection, the location of the needle tip was monitored by direct visualization to determine that it was in the vitreal cavity. […]

[1] = Ex 1, 0.5× (1×=2 mg/ml), intravitreal P8, read P12
[2] = Ex 2, 0.1× of each (1×: T2-TrpRS 0.5, Comp. (2) 2 mg/ml), intravitreal P4, read P12
[3] = Ex 3, 1× of each (T2-TrpRS 0.5, Comp. (2) 2 mg/ml), intravitreal P4, read P12
[4] = Ex 4, 0.5× (1×=2 mg/ml), intravitreal P4, read P12
[5] = Ex 6, 1× of each (T2-TrpRS 0.5, Comp. (2) 2 mg/ml), intravitreal P4, read P12
[6] = Ex 7, 1× (T2-TrpRS 0.5, Comp. (2) 2 mg/ml), intravitreal P4, read P12
[7] = Ex 8, 0.25× (1×=2 mg/ml), intravitreal P4, read P12
[8] = Ex 9, 1× of each (Comp. (1) 20, Comp. (2) 2, T2-TrpRS 0.5 mg/ml), intravitreal P4, read P12
[9] = Table 12, composite data from the Examples, 1× (Compound (2) 0.5× to 1×)
[10] = Table 13A, 1-2 μg per eye, intravitreal P7, read P12
[11] = Table 13C low dosing, 0.1x (integrin ant. 1.0 μg, VEGF apt. 0.20 μg, T2-TrpRS 0.025 μg)

## pegaptanib sodium [Compound (2)]
0.1× concentrations (1 μg/eye integrin antagonist, 0.2 μg/eye VEGF aptamer, 0.025 μg/eye T2-TrpRS)
  inhibition of neovascularization: negligible
[1]
  % of eyes with 0-10% inhibition of deep vascular layer: 20%
  % of eyes with 10-25% inhibition of deep vascular layer: 20%
  % of eyes with 25-50% inhibition of deep vascular layer: 20%
  % of eyes with 50-75% inhibition of deep vascular layer: 20%
  % of eyes with 75-100% inhibition of deep vascular layer: 40%
[2]
  % of eyes with 0-10% inhibition of deep vascular layer: 87.5%
  % of eyes with 10-25% inhibition of deep vascular layer: 12.5%
  % of eyes with 25-50% inhibition of deep vascular layer: 0%
  % of eyes with 50-75% inhibition of deep vascular layer: 0%
  % of eyes with 75-100% inhibition of deep vascular layer: 0%
  % of eyes with 100% inhibition of deep vascular layer: 0%
  % of eyes with >95% inhibition of deep vascular layer: 0%
[3]
  % of eyes with 0-10% inhibition of deep vascular layer: 37.5%
  % of eyes with 10-25% inhibition of deep vascular layer: 12.5%
  % of eyes with 25-50% inhibition of deep vascular layer: 12.5%
  % of eyes with 50-75% inhibition of deep vascular layer: 12.5%
  % of eyes with 75-100% inhibition of deep vascular layer: 25%
  % of eyes with 100% inhibition of deep vascular layer: 0%
  % of eyes with >95% inhibition of deep vascular layer: 0%
[4]
  % of eyes with 0-10% inhibition of deep vascular layer: 60%
  % of eyes with 10-25% inhibition of deep vascular layer: 30%
  % of eyes with 25-50% inhibition of deep vascular layer: 0%
  % of eyes with 50-75% inhibition of deep vascular layer: 0%
  % of eyes with 75-100% inhibition of deep vascular layer: 10%
  % of eyes with 100% inhibition of deep vascular layer: 0%
  % of eyes with >95% inhibition of deep vascular layer: 0%
[5]
  % of eyes with 0-10% inhibition of deep vascular layer: 37.5%
  % of eyes with 10-25% inhibition of deep vascular layer: 25%
  % of eyes with 25-50% inhibition of deep vascular layer: 12.5%
  % of eyes with 50-75% inhibition of deep vascular layer: 25%
  % of eyes with 75-100% inhibition of deep vascular layer: 0%
  % of eyes with 100% inhibition of deep vascular layer: 0%
  % of eyes with >95% inhibition of deep vascular layer: 0%
[6]
  % of eyes with 0-10% inhibition of deep vascular layer: 25%
  % of eyes with 10-25% inhibition of deep vascular layer: 25%
  % of eyes with 25-50% inhibition of deep vascular layer: 0%
  % of eyes with 50-75% inhibition of deep vascular layer: 12.5%
  % of eyes with 75-100% inhibition of deep vascular layer: 37.5%
  % of eyes with 100% inhibition of deep vascular layer: 0%
  % of eyes with >95% inhibition of deep vascular layer: 0%
[7]
  % of eyes with 0-10% inhibition of deep vascular layer: 54.5%
  % of eyes with 10-25% inhibition of deep vascular layer: 36.4%
  % of eyes with 25-50% inhibition of deep vascular layer: 0%
  % of eyes with 50-75% inhibition of deep vascular layer: 0%
  % of eyes with 75-100% inhibition of deep vascular layer: 9.1%
  % of eyes with 100% inhibition of deep vascular layer: 0%
  % of eyes with >95% inhibition of deep vascular layer: 0%
[8]
  % of eyes with 0-10% inhibition of deep vascular layer: 25%
  % of eyes with 10-25% inhibition of deep vascular layer: 0%
  % of eyes with 25-50% inhibition of deep vascular layer: 12.5%
  % of eyes with 50-75% inhibition of deep vascular layer: 12.5%
  % of eyes with 75-100% inhibition of deep vascular layer: 50%
  % of eyes with 100% inhibition of deep vascular layer: 12.5%
  % of eyes with >95% inhibition of deep vascular layer: 25%
[9]
  % of mice with 0-10% inhibition of deep vascular layer: 39.1%
  % of mice with 10-25% inhibition of deep vascular layer: 20%
  % of mice with 25-50% inhibition of deep vascular layer: 7.6%
  % of mice with 50-75% inhibition of deep vascular layer: 11.9%
  % of mice with 75-100% inhibition of deep vascular layer: 21.4%
  % of mice with 100% inhibition of deep vascular layer: 2.4%
  % of mice with >95% inhibition of deep vascular layer: 4.7%
[10]
  Percentage of retinas with 0-10% neovascular inhibition: 39.1%
  Percentage of retinas with 10-25% neovascular inhibition: 20.0%
  Percentage of retinas with 25-50% neovascular inhibition: 7.6%
  Percentage of retinas with 50-75% neovascular inhibition: 11.9%
  Percentage of retinas with 100% neovascular inhibition: 2.4%
  Percentage of retinas with >75% neovascular inhibition: 21.4%
  Percentage of retinas with >90% neovascular inhibition: 4.7%
[11]
  Percentage of retinas with 0-10% neovascular inhibition: 75%
  Percentage of retinas with 10-25% neovascular inhibition: 25%
  Percentage of retinas with 25-50% neovascular inhibition: 0%
  Percentage of retinas with 50-75% neovascular inhibition: 0%
  Percentage of retinas with 100% neovascular inhibition: 0%
  Percentage of retinas with >75% neovascular inhibition: 0%
  Percentage of retinas with >90% neovascular inhibition: 0%
Monotherapy at optimal dose
  retinas that exhibited over 75% inhibition: 21%
Monotherapy at the maximum individual dose
  retinas unaffected by injection: around 35%

— patent US7528106B2, “Compositions and methods for treatment of neovascular diseases” (The Scripps Research Institute, priority 2004, dated 2009)
